Key:
EpiDerm tissues = experiment: MatTek EpiDerm in vitro human skin model, croton oil irritant, multiplex immunoassay of markers; assay type: cell-based; conditions: for tissue levels of IL-17 / tissue levels of MIP-1-alpha: relative to control (croton oil only)
[1] = test system: human cutaneous malignant melanoma; conditions: Zaffaroni et al. 1990; cited from earlier work
[2] = clinical practice; cited from earlier work
human choroidal melanoma = conditions: Breathnach et al. 1989; cited from earlier work
[3] = test system: various fibroblastic lines; conditions: Geier et al. 1986; cited from earlier work
[4] = test system: human squamous cell carcinoma; conditions: Paetzold et al. 1989; cited from earlier work
[5] = growth medium, croton oil, 24 hours, relative to control
[6] = tissue, croton oil, 24 hours, relative to control

Structure (SMILES)	IL-8 modulation (EpiDerm tissues; matrix not stated)	IL-17 modulation (EpiDerm tissues; matrix not stated)	IL-23 modulation (EpiDerm tissues; matrix not stated)	tissue levels of IL-17 (EpiDerm tissues; tissue)	tissue levels of MIP-1-alpha (EpiDerm tissues; tissue)	IL-1-beta medium marker level (EpiDerm tissues; [5])	IL-4 medium marker level (EpiDerm tissues; [5])	IL-10 medium marker level (EpiDerm tissues; [5])	TNF-alpha medium marker level (EpiDerm tissues; [5])	IL-1-beta tissue level (EpiDerm tissues; [6])	IL-4 tissue level (EpiDerm tissues; [6])	IL-10 tissue level (EpiDerm tissues; [6])	TNF-alpha tissue level (EpiDerm tissues; [6])	antiproliferative and cytotoxic action [1]	major dose limiting toxicity [2]	antiproliferative and cytotoxic action (human choroidal melanoma)	antiproliferative and cytotoxic action [3]	antiproliferative and cytotoxic action [4]
CCOC(=O)CCCCCCCC(=O)OCC [DEA, diethyl azelate]	suppressing	suppressing	suppressing	exceedingly high relative to control	elevated relative to control	–	–	–	–	–	–	–	–	–	–	–	–	–
COC(=O)CCCCCCCC(=O)OC [DMA, dimethylazelate]	–	–	–	–	–	increased	increases	increases	increased	decreased relative to control	decreased relative to control	decreased relative to control	decreased relative to control	–	–	–	–	–
O=C(O)CCCCCCCC(=O)O [azelaic acid]	–	–	–	significantly lower than control	elevated relative to control	–	–	–	–	–	–	–	–	antiproliferative and cytotoxic action	skin irritation	antiproliferative and cytotoxic action	antiproliferative and cytotoxic action	antiproliferative and cytotoxic action
